Measurements taken from ChEMBL document CHEMBL1201862, “PubChem BioAssay data set” (2004).
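Briefly, cells in 96-well plates were exposed to five compound concentrations for 48 h, and endpoints were estimated by linear interpolation. Abbreviation: GI50, concentration required for 50% inhibition of growth.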 Activity calls are given as the source filed them. Rule as the data show it: active = GI50 up to about 1.1 µM and inactive = higher.

Key:
Assay in all cases: NCI-60 cell line screen, 48 h
A498 = system: A498
CAKI-1 = system: CAKI-1
COLO 205 = system: COLO 205
HCT-116 = system: HCT-116
HOP-92 = system: HOP-92
KM-20L2 = system: KM-20L2
Malme-3M = system: Malme-3M
NCI-H460 = system: NCI-H460
NCI-H522 = system: NCI-H522
NCI/ADR-RES = system: NCI/ADR-RES
OVCAR-4 = system: OVCAR-4
RPMI-8226 = system: RPMI-8226
SF-268 = system: SF-268
SK-MEL-28 = system: SK-MEL-28
SK-OV-3 = system: SK-OV-3
SN12C = system: SN12C
SNB-78 = system: SNB-78
SW-620 = system: SW-620
UACC-62 = system: UACC-62
UO-31 = system: UO-31

Structure (SMILES)	GI50 (A498)	GI50 (CAKI-1)	GI50 (COLO 205)	GI50 (HCT-116)	GI50 (HOP-92)	GI50 (KM-20L2)	GI50 (Malme-3M)	GI50 (NCI-H460)	GI50 (NCI-H522)	GI50 (NCI/ADR-RES)	GI50 (OVCAR-4)	GI50 (RPMI-8226)	GI50 (SF-268)	GI50 (SK-MEL-28)	GI50 (SK-OV-3)	GI50 (SN12C)	GI50 (SNB-78)	GI50 (SW-620)	GI50 (UACC-62)	GI50 (UO-31)
CCCN1C(=O)/C(=C(/O)C(=O)OCC)C(c2ccc(OC)c(OC)c2)C1=O (centres undefined)	> 100 µM (inactive)	> 100 µM (inactive)	> 100 µM (inactive)	> 100 µM (inactive)	> 100 µM (inactive)	> 100 µM (inactive)	> 100 µM (inactive)	> 31.6 µM (inactive)	> 100 µM (inactive)	> 100 µM (inactive)	> 100 µM (inactive)	> 93.8 µM (inactive)	> 100 µM (inactive)	> 100 µM (inactive)	> 100 µM (inactive)	> 100 µM (inactive)	> 100 µM (inactive)	> 100 µM (inactive)	> 100 µM (inactive)	> 100 µM (inactive)
CCOC(=O)c1ccc(N(CCOS(C)(=O)=O)CCOS(C)(=O)=O)cc1	35.2 µM (inactive)	12.6 µM (inactive)	64.9 µM (inactive)	30.1 µM (inactive)	37.6 µM (inactive)		38.8 µM (inactive)	37 µM (inactive)	12.9 µM (inactive)	35.7 µM (inactive)	35.7 µM (inactive)	25.1 µM (inactive)	26.1 µM (inactive)	> 100 µM (inactive)				32 µM (inactive)	27.8 µM (inactive)	20.5 µM (inactive)
COc1ccc(/C=c2\sc3n(c2=O)CCN=3)cc1				> 100 µM (inactive)	29.8 µM (inactive)	> 100 µM (inactive)	39.1 µM (inactive)	> 100 µM (inactive)	84.5 µM (inactive)		> 100 µM (inactive)			> 100 µM (inactive)	> 100 µM (inactive)	75.7 µM (inactive)	> 100 µM (inactive)	> 100 µM (inactive)	> 100 µM (inactive)	> 100 µM (inactive)
C[C@H]1O[C@@H](O[C@H]2[C@@H](O)C[C@H](O[C@H]3[C@@H](O)C[C@H](O[C@H]4CC[C@@]5(C)[C@H](CC[C@@H]6[C@@H]5CC[C@]5(C)[C@@H](C7=CC(=O)OC7)CC[C@]65O)C4)O[C@@H]3C)O[C@@H]2C)C[C@H](O)[C@@H]1O [DIGITOXIN]		0.0184 µM (active)	0.0501 µM (active)	0.0165 µM (active)	0.0422 µM (active)		0.028 µM (active)		< 0.01 µM (active)	0.0283 µM (active)	0.0199 µM (active)	0.0292 µM (active)	< 0.0241 µM (active)	0.092 µM (active)	0.045 µM (active)	< 0.01 µM (active)		0.0296 µM (active)	0.0579 µM (active)	0.0414 µM (active)
NCCCN(CCCN)CCN(CCN(CCCN)CCCN)CCN(CCCN)CCCN		> 100 µM (inactive)	> 100 µM (inactive)	> 100 µM (inactive)	82.2 µM (inactive)			> 100 µM (inactive)	17 µM (inactive)	> 100 µM (inactive)	> 100 µM (inactive)	> 100 µM (inactive)		> 100 µM (inactive)	48.4 µM (inactive)	> 100 µM (inactive)		> 100 µM (inactive)		> 100 µM (inactive)
CCCCN(C)/N=N/c1[nH]cnc1C(N)=O	> 71.1 µM (inactive)	20.3 µM (inactive)	> 100 µM (inactive)	> 100 µM (inactive)	47.6 µM (inactive)	> 50.2 µM (inactive)	> 86.9 µM (inactive)	> 100 µM (inactive)	> 100 µM (inactive)	> 100 µM (inactive)	68.9 µM (inactive)	> 100 µM (inactive)	> 100 µM (inactive)	> 100 µM (inactive)	35.8 µM (inactive)	> 100 µM (inactive)	> 100 µM (inactive)	> 100 µM (inactive)	57.1 µM (inactive)	> 100 µM (inactive)
COc1ccc(C2COc3cc(OC(C)=O)c(OC(C)=O)cc3C2)cc1 (centres undefined)	4.54 µM (inactive)	23 µM (inactive)	20 µM (inactive)	20.4 µM (inactive)	9.08 µM (inactive)	31.4 µM (inactive)	23.2 µM (inactive)	13.9 µM (inactive)	1.97 µM (inactive)	36.3 µM (inactive)	16.7 µM (inactive)	5.97 µM (inactive)	12.3 µM (inactive)	23.8 µM (inactive)	40.1 µM (inactive)	17.5 µM (inactive)	26.1 µM (inactive)	14.3 µM (inactive)	19 µM (inactive)	19.5 µM (inactive)
c1ccc(-n2cnnc2-c2nsc3ccccc23)cc1			> 100 µM (inactive)	> 100 µM (inactive)	53.1 µM (inactive)	> 100 µM (inactive)		> 100 µM (inactive)			> 100 µM (inactive)	> 100 µM (inactive)	> 100 µM (inactive)	> 100 µM (inactive)		> 100 µM (inactive)	> 100 µM (inactive)	> 100 µM (inactive)	> 100 µM (inactive)	> 100 µM (inactive)
O=c1ccn([C@@H]2C=C(CO)[C@@H](O)[C@H]2O)c(=O)[nH]1		> 625 µM (inactive)	> 625 µM (inactive)	> 625 µM (inactive)	> 625 µM (inactive)	> 625 µM (inactive)	> 625 µM (inactive)	> 625 µM (inactive)	> 625 µM (inactive)	> 625 µM (inactive)	> 625 µM (inactive)		> 625 µM (inactive)	> 625 µM (inactive)	> 625 µM (inactive)	> 625 µM (inactive)		> 625 µM (inactive)	> 625 µM (inactive)	> 625 µM (inactive)
CCOC(=O)CN(CC)C(=O)NC12CC3CC(CC(C3)C1)C2	136 µM (inactive)	169 µM (inactive)	141 µM (inactive)	189 µM (inactive)	67 µM (inactive)	170 µM (inactive)	152 µM (inactive)	200 µM (inactive)	155 µM (inactive)	196 µM (inactive)	175 µM (inactive)	141 µM (inactive)	281 µM (inactive)	269 µM (inactive)	218 µM (inactive)	288 µM (inactive)	240 µM (inactive)	219 µM (inactive)	116 µM (inactive)	139 µM (inactive)
COc1ccccc1OCC(COC(=O)Nc1ccccc1)OC(=O)Nc1ccccc1 (centres undefined)	60.3 µM (inactive)	20.3 µM (inactive)	94.2 µM (inactive)	61.1 µM (inactive)	6.25 µM (inactive)	> 100 µM (inactive)	60.8 µM (inactive)	48.5 µM (inactive)	49.4 µM (inactive)		55.3 µM (inactive)		57.5 µM (inactive)	> 100 µM (inactive)	> 100 µM (inactive)	28.5 µM (inactive)	43.3 µM (inactive)	> 100 µM (inactive)	32.6 µM (inactive)	49.3 µM (inactive)
